Experiments:
[1] = molecular target: T1, human GLP-1R receptor (Homo sapiens, UniProt P43220); assay: GLP-1R low expression cell assay (cAMP TR-FRET, CHO-K1_hGLP-1Rlow_clone10 cells); format: cell-based; details: for EC50: cAMP TR-FRET, 30 min at 25° C.; for Emax: maximum activation relative to control GLP-1 peptide agonist
T1 construct: expressed in transfected cells
Method in brief: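 Readout is cAMP TR-FRET after 30 min compound stimulation at 25 °C of a low-GLP-1R-expressing CHO-K1 clone (1,000 cells/well), with 10-point 3-fold serial dilutions. Percent activation versus a control GLP-1 peptide, from duplicates, was Hill-fitted to give EC50.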

[2] = Rat pharmacokinetics, oral dosing; format: in vivo, Sprague-Dawley rats; details: male, Sprague-Dawley, oral dosing at 3 mg/kg, plasma; for half-life: read-out: Rat T1/2
Procedure: Intravenous dosing: Compounds were formulated at 1.0 mg/mL in a solution comprising 5% polyethylene glycol 400 and 95% (12% (w/v) sulfobutyl-β-cyclodextrin in water) (v/v). Formulated compounds were sterile filtered through a 0.22 micron filter before dosing. Compounds were administered to male, 7-11-week-old Sprague-Dawley rats by jugular vein cannula infusion over 30 minutes at a dose of 1 mg/kg. Oral dosing: Compounds were formulated at 1.0 mg/mL in a solution comprising 5% polyethylene glycol 400 and 95% (12% (w/v) sulfobutyl-β-cyclodextrin in water) (v/v). Formulated compounds were administered to male, 7-11 week old Sprague-Dawley rats by oral gavage at a dose of 10 mg/kg or 3 mg/kg.
Sample collection: Blood collections of about 0.2 mL per time point were performed from jugular vein or other suitable site of each animal, into pre-chilled commercial EDTA-K2 tubes and placed on wet ice until centrifugation. Blood samples were processed for plasma by centrifugation at approximately 4° C., 3,200 g for 10 min. Plasma was collected and transferred into pre-labeled 96 well plate or polypropylene tubes, quick frozen over dry ice and kept at −60° C. or lower until
Data analysis: Plasma concentration versus time data was plotted in graph and analyzed by non-compartmental approaches using the Phoenix WinNonlin 6.3 software program. Related PK parameters were calculated according to dosing route, e.g., CL, Vdss and C0 for intravenous administration, Cmax, Tmax or % F for extravascular administration, and T1/2, AUC(0-t), AUC(0-inf), MRT(0-t), MRT(0-inf) for all routes.

T1 sequence (P43220 24-463): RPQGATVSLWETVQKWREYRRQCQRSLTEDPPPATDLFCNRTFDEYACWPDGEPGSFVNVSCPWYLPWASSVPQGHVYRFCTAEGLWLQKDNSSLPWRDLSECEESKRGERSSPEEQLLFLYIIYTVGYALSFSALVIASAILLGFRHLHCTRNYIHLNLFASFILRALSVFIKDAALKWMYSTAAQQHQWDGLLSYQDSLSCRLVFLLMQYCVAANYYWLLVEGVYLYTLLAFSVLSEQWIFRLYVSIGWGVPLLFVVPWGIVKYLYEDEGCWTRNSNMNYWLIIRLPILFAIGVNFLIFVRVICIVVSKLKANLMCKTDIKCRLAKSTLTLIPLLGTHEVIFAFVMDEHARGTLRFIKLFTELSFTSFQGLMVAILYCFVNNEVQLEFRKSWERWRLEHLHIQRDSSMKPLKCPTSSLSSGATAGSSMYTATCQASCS

Row | SMILES | EC50 [1] | Emax [1] | AUC [2] | Cmax [2] | half-life [2] | bioavailability [2]
1 | COc1cc(C(=O)O)cc2c1nc(Cc1cc(F)c(-c3cccc(OCc4ccc(C#N)cc4F)n3)cc1F)n2C [Compound 304, 2-(4-(6-((4-Cyano-2-fluorobenzyl)oxy)pyridin-2-yl)-2,5-difluorobenzyl)-4-methoxy-1-methyl-1H-benzo[d]imidazole-6-carboxylic acid] | < 10 nM | > 85% | 2500 to 10000 ng·h/mL | 2000 to 5000 ng/mL | 1.5 to 2.5 h | 50 to 85%
2 | Cn1c(N(C)[C@H]2CC[C@H](c3cccc(OCc4ccc(C#N)cc4F)n3)CC2)nc2c(OC(F)F)cc(C(=O)O)cc21 [Compound 133, 2-(((1r,4r)-4-(6-((4-Cyano-2-fluorobenzyl)oxy)pyridin-2-yl)cyclohexyl)(methyl)amino)-4-(difluoromethoxy)-1-methyl-1H-benzo[d]imidazole-6-carboxylic acid] | < 10 nM | > 85% | 500 to 2500 ng·h/mL | 500 to 1000 ng/mL | 1.5 to 2.5 h | 25 to 50%
3 | Cn1c(CN2CCC(c3cccc(OCc4ccc(C#N)cc4F)n3)CC2)nc2c(OC(F)F)cc(C(=O)O)cc21 [Compound 127, 2-((4-(6-((4-Cyano-2-fluorobenzyl)oxy)pyridin-2-yl)piperidin-1-yl)methyl)-4-(difluoromethoxy)-1-methyl-1H-benzo[d]imidazole-6-carboxylic acid] | < 10 nM | > 85% | 2500 to 10000 ng·h/mL | 2000 to 5000 ng/mL | < 1.5 h | 50 to 85%
4 | CC(C)Oc1cc(C(=O)O)cc2c1nc(CN1CCC(c3cccc(OCc4ccc(C#N)cc4F)n3)CC1)n2Cc1cncs1 [Compound 73, 2-((4-(6-((4-Cyano-2-fluorobenzyl)oxy)pyridin-2-yl)piperidin-1-yl)methyl)-4-isopropoxy-1-(thiazol-5-ylmethyl)-1H-benzo[d]imidazole-6-carboxylic acid] | < 10 nM | > 85% | < 500 ng·h/mL | < 500 ng/mL | < 1.5 h | < 25%
5 | Cn1c(CN2CCC(c3cccc(OCc4ccc(Cl)cc4F)n3)CC2)nc2c(OC(F)F)cc(C(=O)O)cc21 [Compound 136, 2-((4-(6-((4-Chloro-2-fluorobenzyl)oxy)pyridin-2-yl)piperidin-1-yl)methyl)-4-(difluoromethoxy)-1-methyl-1H-benzo[d]imidazole-6-carboxylic acid] | < 10 nM | > 85% |  | > 5000 ng/mL | ≥ 2.5 h | > 85%
6 | Cn1c(CN2CCC(c3cccc(OCc4ccc(Cl)cc4F)n3)CC2)nc2c(OCF)cc(C(=O)O)cc21 [Compound 225, 2-((4-(6-((4-Chloro-2-fluorobenzyl)oxy)pyridin-2-yl)piperidin-1-yl)methyl)-4-(fluoromethoxy)-1-methyl-1H-benzo[d]imidazole-6-carboxylic acid] | < 10 nM | > 85% |  | 2000 to 5000 ng/mL | ≥ 2.5 h | > 85%
7 | [2H]C([2H])([2H])Oc1cc(C(=O)O)cc2c1nc(CN1CCC(c3cccc(OCc4ccc(Cl)cc4F)n3)CC1)n2C [Compound 207, 2-((4-(6-((4-chloro-2-fluorobenzyl)oxy)pyridin-2-yl)piperidin-1-yl)methyl)-4-(methoxy-d3)-1-methyl-1H-benzo[d]imidazole-6-carboxylic acid] | < 10 nM | > 85% |  | > 5000 ng/mL | 1.5 to 2.5 h | 50 to 85%
8 | COc1c(F)c(C(=O)O)cc2c1nc(CN1CCC(c3cccc(OCc4ccc(C#N)cc4F)n3)CC1)n2C [Compound 301, 2-((4-(6-((4-Cyano-2-fluorobenzyl)oxy)pyridin-2-yl)piperidin-1-yl)methyl)-5-fluoro-4-methoxy-1-methyl-1H-benzo[d]imidazole-6-carboxylic acid] | 10 to 100 nM | > 85% | 500 to 2500 ng·h/mL | 500 to 1000 ng/mL | 1.5 to 2.5 h | 50 to 85%
9 | Cn1c(CN2CCC(c3cccc4c3OC[C@@H](c3ccc(C#N)cc3F)O4)CC2)nc2c(OC(F)F)cc(C(=O)O)cc21 [Compound 300, (R)-2-((4-(2-(4-Cyano-2-fluorophenyl)-2,3-dihydrobenzo[b][1,4]dioxin-5-yl)piperidin-1-yl)methyl)-4-(difluoromethoxy)-1-methyl-1H-benzo[d]imidazole-6-carboxylic acid] | 100 to 1000 nM | > 85% |  | 2000 to 5000 ng/mL | ≥ 2.5 h | > 85%
10 | C[C@]1(c2ccc(Cl)cn2)Oc2cccc(C3CCN(Cc4nc5c(O)cc(C(=O)O)cc5n4Cc4cncs4)CC3)c2O1 [Compound 90, (S)-2-((4-(2-(5-chloropyridin-2-yl)-2-methylbenzo[d][1,3]dioxol-4-yl)piperidin-1-yl)methyl)-4-hydroxy-1-(thiazol-5-ylmethyl)-1H-benzo[d]imidazole-6-carboxylic acid] | < 10 nM | > 85% | < 500 ng·h/mL | < 500 ng/mL | 1.5 to 2.5 h | < 25%
11 | C[C@]1(c2ccc(Cl)cn2)Oc2cccc(C3CCN(Cc4nc5c(OCCF)cc(C(=O)O)cc5n4C[C@@H]4CCO4)CC3)c2O1 [Compound 81, 2-((4-((S)-2-(5-Chloropyridin-2-yl)-2-methylbenzo[d][1,3]dioxol-4-yl)piperidin-1-yl)methyl)-4-(2-fluoroethoxy)-1-(((S)-oxetan-2-yl)methyl)-1H-benzo[d]imidazole-6-carboxylic acid] | < 10 nM | > 85% | < 500 ng·h/mL | < 500 ng/mL | ≥ 2.5 h | < 25%
12 | C[C@]1(c2ccc(Cl)cn2)Oc2cccc(C3CCN(Cc4nc5c(OC(F)F)cc(C(=O)O)cc5n4C[C@@H]4CCO4)CC3)c2O1 [Compound 78, 2-((4-((S)-2-(5-Chloropyridin-2-yl)-2-methylbenzo[d][1,3]dioxol-4-yl)piperidin-1-yl)methyl)-4-(difluoromethoxy)-1-(((S)-oxetan-2-yl)methyl)-1H-benzo[d]imidazole-6-carboxylic acid] | < 10 nM | > 85% | < 500 ng·h/mL | < 500 ng/mL | 1.5 to 2.5 h | 25 to 50%
13 | Cn1c(CN2CCC(c3ccc(F)c(OCc4ccc(Cl)cc4F)c3)CC2)nc2c(OC(F)F)cc(C(=O)O)cc21 [Compound 216, 2-((4-(3-((4-Chloro-2-fluorobenzyl)oxy)-4-fluorophenyl)piperidin-1-yl)methyl)-4-(difluoromethoxy)-1-methyl-1H-benzo[d]imidazole-6-carboxylic acid] | 10 to 100 nM | > 85% |  | > 5000 ng/mL | 1.5 to 2.5 h | 50 to 85%
14 | CCOc1cc(C(=O)O)cc2c1nc(CN1CCC(c3cccc(OCc4ccc(C#N)cc4F)n3)CC1)n2C [Compound 298, 2-((4-(6-((4-Cyano-2-fluorobenzyl)oxy)pyridin-2-yl)piperidin-1-yl)methyl)-4-ethoxy-1-methyl-1H-benzo[d]imidazole-6-carboxylic acid] | < 10 nM | > 85% | 500 to 2500 ng·h/mL | 1000 to 2000 ng/mL | ≥ 2.5 h | 25 to 50%

Reference: US20240368120A1 (Terns Pharmaceuticals, Inc., priority 2023, published 2024)
